Earlier results, collected in patent US20150299754A1, “STREPTOMYCES MICROFLAVUS STRAINS AND METHODS OF THEIR USE TO CONTROL PLANT DISEASES AND PESTS” (Bayer CropScience LP, priority 2014, published 2015).

How the values were obtained:
powdery mildew = conditions: according to GB 1 507 193
[1] = tested on: gram-positive, gram-negative bacteria and tubercule bacillus; conditions: according to U.S. Pat. No. 3,849,398
[2] = tested on: parasites on animals, such as pin worm; conditions: according to U.S. Pat. No. 3,849,398

SMILES | antifungal activity against powdery mildew (powdery mildew) | antibacterial activity [1] | parasiticidal action [2]
NC(N)=NCC(O)CC(O)(C(=O)O)[C@H]1O[C@@H](n2cc(CO)c(N)nc2=O)C=C[C@@H]1NC(=O)[C@@H](N)CO (stereo partly drawn) [B-98891] | antifungal activity |  | 
CNCC(=O)NC(CO)C(=O)NC1C(C(N)=O)OC(n2ccc(N)nc2=O)C(O)C1O (stereo not drawn) [gougerotin] |  | weak antibacterial activity | parasiticidal action
